Where two headings read alike, the source gives them in different places.
What was measured:
[1] = system: S. aureus ATCC 33593
Outline: (§1)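 Broth microdilution per CLSI in Müller-Hinton broth and modified LYM broth (pH 7.4; variants with 50–300 mM NaCl, 0.5–2.5 mM MgCl2, or pH 6.5–4.5). Inoculum 5 × 10^5 CFU/mL; peptides tested at 0.78–50 µg/mL final. MIC read; three independent repeats.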

[2] = system: A. baumannii 14B0097 (Acinetobacter sp., BCRC number 14B0097)
Outline: as §1

[3] = system: S. aureus ATCC 25923
Outline: as §1

[4] = system: S. aureus ATCC 33591
Outline: as §1

[5] = system: Escherichia coli (ATCC 25922)
Outline: as §1

[6] = system: A. baumannii 14B0091 (Acinetobacter sp., BCRC number 14B0091)
Outline: as §1

[7] = system: Both Gram-positive and -negative bacteria; assay: Geometric mean MIC, therapeutic index and fold changes of MIC, whole panel of strains; assay type: cell-based; settings: for weakening of antibacterial efficacy (MIC): LYM broth
Outline: (§2)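 CLSI broth microdilution in MH broth or modified LYM broth (pH 7.4, varied NaCl, MgCl2, pH), 5 × 10^5 CFU/mL, peptides 0.78–50 µg/mL; three independent repeats.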

[8] = system: Gram-positive bacteria; assay: Geometric mean MIC and therapeutic index, Gram-positive bacteria; assay type: cell-based; settings: Gram-positive bacteria
Outline: as §2

[9] = LYM broth, 0 mM NaCl, 16 h, 37 °C
[10] = LYM broth, 50 mM NaCl, 16 h, 37 °C
[11] = LYM broth, 100 mM NaCl, 16 h, 37 °C
[12] = LYM broth, 200 mM (NaCl), 16 h, 37 °C
[13] = LYM broth, 300 mM (NaCl), 16 h, 37 °C
[14] = MH broth, 5 × 10^5 CFU/mL, 16 h, 37 °C, repeated three times

Ac-KKWRKWLKWLAKK-NH2 [W5K/A9W]
3.6: Therapeutic Index (TI) G+ ([8]; HC10/GM)
3.13 µg/mL: MIC [1, 9] | MIC ([1]; LYM broth, 0.5 mM MgCl2) | MIC ([1]; LYM broth, 1.5 mM MgCl2) | MIC ([1]; LYM broth, 2.5 mM MgCl2) | MIC [1, 10] | MIC [1, 11] | MIC ([1]; LYM broth, pH 4.5) | MIC ([1]; LYM broth, pH 5.5) | MIC ([1]; LYM broth, pH 6.5) | MIC ([3]; LYM broth, 1.5 mM MgCl2) | MIC ([3]; LYM broth, 2.5 mM MgCl2) | MIC [3, 11] | MIC [3, 12] | MIC ([3]; LYM broth, pH 4.5) | MIC [3, 14] | MIC [4, 9] | MIC ([4]; LYM broth, 0.5 mM MgCl2) | MIC ([4]; LYM broth, 1.5 mM MgCl2) | MIC ([4]; LYM broth, 2.5 mM MgCl2) | MIC [4, 10] | MIC ([4]; LYM broth, pH 4.5) | MIC ([4]; LYM broth, pH 5.5) | MIC ([4]; LYM broth, pH 6.5) | MIC ([5]; LYM broth, 0.5 mM MgCl2) | MIC ([5]; LYM broth, 1.5 mM MgCl2) | MIC [5, 11] | MIC [5, 12] | MIC [5, 14]
12.5 µg/mL: MIC [1, 13] | MIC [1, 14] | MIC [4, 13] | MIC [4, 14] | MIC [5, 13]
7.3: Therapeutic Index (TI) G−/+ ([7]; HC10/GM, both Gram-positive and -negative bacteria)
1.56 µg/mL: MIC [2, 9] | MIC ([2]; LYM broth, 0.5 mM MgCl2) | MIC ([2]; LYM broth, 1.5 mM MgCl2) | MIC ([2]; LYM broth, 2.5 mM MgCl2) | MIC [2, 10] | MIC [2, 11] | MIC [2, 12] | MIC [2, 13] | MIC ([2]; LYM broth, pH 4.5) | MIC ([2]; LYM broth, pH 5.5) | MIC ([2]; LYM broth, pH 6.5) | MIC [2, 14] | MIC [3, 9] | MIC ([3]; LYM broth, 0.5 mM MgCl2) | MIC [3, 10] | MIC ([3]; LYM broth, pH 5.5) | MIC ([3]; LYM broth, pH 6.5) | MIC [5, 9] | MIC [5, 10] | MIC ([5]; LYM broth, pH 4.5) | MIC ([5]; LYM broth, pH 5.5) | MIC ([5]; LYM broth, pH 6.5) | MIC [6, 9] | MIC ([6]; LYM broth, 0.5 mM MgCl2) | MIC ([6]; LYM broth, 1.5 mM MgCl2) | MIC ([6]; LYM broth, 2.5 mM MgCl2) | MIC [6, 10] | MIC [6, 11] | MIC [6, 12] | MIC [6, 13] | MIC ([6]; LYM broth, pH 4.5) | MIC ([6]; LYM broth, pH 5.5) | MIC ([6]; LYM broth, pH 6.5) | MIC [6, 14]
6.25 µg/mL: MIC [1, 12] | MIC [3, 13] | MIC [4, 11] | MIC [4, 12] | MIC ([5]; LYM broth, 2.5 mM MgCl2)
8.2 µg/mL: GM G+ (geometric mean of the MIC values) ([8]; MH broth, MIC >50 µg/mL counted as 100 µg/mL)
up to 4 fold: weakening of antibacterial efficacy (MIC) ([7]; 300 mM NaCl)
up to 2 fold: weakening of antibacterial efficacy (MIC) ([7]; MgCl2 rising above 0.5 mM)
4.1 µg/mL: GM G−/+ (geometric mean of the MIC values) ([7]; Both Gram-positive and -negative bacteria, MH broth, MIC >50 µg/mL counted as 100 µg/mL)
